Counter-ions that a name gives are not always drawn.
Legend:
[1] = biological target: T1, reuptake of noradrenaline (NA) in synaptosomes (Rattus norvegicus, UniProt Q63380); test: Inhibition of noradrenaline reuptake in synaptosomes; assay type: biochemical; conditions: 3H-NA, read-out: NA-uptake IC50
T1 construct: in synaptosomes as described in WO 97/16451 (NeuroSearch A/S); from tissue
Source text: (§1) Compounds of the invention may be tested for their ability to inhibit reuptake of the monoamines dopamine, noradrenaline and serotonin in synaptosomes e.g. such as described in WO 97/30997 (NeuroSearch A/S) or WO 97/16451 (NeuroSearch A/S). Based on the balanced activity observed in these tests the compound of the invention is considered useful for the treatment, prevention or alleviation of a disease or a disorder or a condition of a mammal, including a human, which disease, disorder or condition is responsive to inhibition of monoamine neurotransmitter re-uptake in the central nervous system.
(§2) Compounds were tested for their ability to inhibit the reuptake of the monoamine neurotransmitters dopamine (DA) noradrenaline (NA) and serotonine (5-HT) in synaptosomes as described in WO 97/16451 (NeuroSearch A/S).
(§3) The test values are given as IC50 (the concentration (μM) of the test substance which inhibits the specific binding of ^3H-DA, ^3H-NA, or ^3H-5-HT by 50%).

[2] = biological target: T2, reuptake of dopamine (DA) in synaptosomes (Rattus norvegicus, UniProt P23977); test: Inhibition of dopamine reuptake in synaptosomes; assay type: biochemical; conditions: 3H-DA, read-out: DA-uptake IC50
T2 construct: in synaptosomes as described in WO 97/16451 (NeuroSearch A/S); from tissue
T2 sequence (P23977 whole entry): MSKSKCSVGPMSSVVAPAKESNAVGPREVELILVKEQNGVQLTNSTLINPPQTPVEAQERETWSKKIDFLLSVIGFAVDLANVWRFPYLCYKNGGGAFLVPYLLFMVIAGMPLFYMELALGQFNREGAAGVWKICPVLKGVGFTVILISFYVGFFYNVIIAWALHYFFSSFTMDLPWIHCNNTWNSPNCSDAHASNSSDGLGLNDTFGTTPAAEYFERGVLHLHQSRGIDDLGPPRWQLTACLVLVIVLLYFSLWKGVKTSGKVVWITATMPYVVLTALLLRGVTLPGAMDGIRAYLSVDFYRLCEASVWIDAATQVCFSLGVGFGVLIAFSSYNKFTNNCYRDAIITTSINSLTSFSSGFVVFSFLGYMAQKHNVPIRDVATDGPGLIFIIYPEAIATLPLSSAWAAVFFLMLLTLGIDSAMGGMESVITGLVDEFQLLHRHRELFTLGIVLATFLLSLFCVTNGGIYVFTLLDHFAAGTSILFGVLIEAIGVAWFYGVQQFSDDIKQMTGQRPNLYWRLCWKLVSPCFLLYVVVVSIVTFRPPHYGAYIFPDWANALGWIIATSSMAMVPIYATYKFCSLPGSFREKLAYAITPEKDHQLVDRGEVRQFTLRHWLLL
Source text: as §1, §2, §3

[3] = biological target: T3, reuptake of serotonine (5-HT) in synaptosomes (Rattus norvegicus, UniProt P31652); test: Inhibition of 5-HT reuptake in synaptosomes; assay type: biochemical; conditions: 3H-5-HT, read-out: 5-HT-uptake IC50
T3 construct: in synaptosomes as described in WO 97/16451 (NeuroSearch A/S); from tissue
T3 sequence (P31652 whole entry): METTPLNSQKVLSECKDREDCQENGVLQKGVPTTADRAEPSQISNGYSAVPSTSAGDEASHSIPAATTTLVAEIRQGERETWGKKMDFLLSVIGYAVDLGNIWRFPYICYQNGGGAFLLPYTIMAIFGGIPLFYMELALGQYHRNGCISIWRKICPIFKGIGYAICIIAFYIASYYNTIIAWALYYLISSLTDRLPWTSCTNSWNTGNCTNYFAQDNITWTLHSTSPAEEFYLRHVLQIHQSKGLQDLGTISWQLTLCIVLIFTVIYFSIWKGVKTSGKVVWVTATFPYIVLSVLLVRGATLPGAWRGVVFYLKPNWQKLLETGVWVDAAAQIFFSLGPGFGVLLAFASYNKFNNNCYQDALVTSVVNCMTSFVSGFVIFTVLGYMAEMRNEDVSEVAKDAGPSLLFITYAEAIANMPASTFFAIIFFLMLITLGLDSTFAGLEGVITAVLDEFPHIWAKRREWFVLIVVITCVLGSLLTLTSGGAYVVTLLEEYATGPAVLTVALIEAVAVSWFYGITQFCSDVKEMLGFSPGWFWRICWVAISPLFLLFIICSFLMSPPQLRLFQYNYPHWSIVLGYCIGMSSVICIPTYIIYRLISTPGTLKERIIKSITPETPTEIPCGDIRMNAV
Source text: as §1, §2, §3

T1 sequence (Q63380 1-617): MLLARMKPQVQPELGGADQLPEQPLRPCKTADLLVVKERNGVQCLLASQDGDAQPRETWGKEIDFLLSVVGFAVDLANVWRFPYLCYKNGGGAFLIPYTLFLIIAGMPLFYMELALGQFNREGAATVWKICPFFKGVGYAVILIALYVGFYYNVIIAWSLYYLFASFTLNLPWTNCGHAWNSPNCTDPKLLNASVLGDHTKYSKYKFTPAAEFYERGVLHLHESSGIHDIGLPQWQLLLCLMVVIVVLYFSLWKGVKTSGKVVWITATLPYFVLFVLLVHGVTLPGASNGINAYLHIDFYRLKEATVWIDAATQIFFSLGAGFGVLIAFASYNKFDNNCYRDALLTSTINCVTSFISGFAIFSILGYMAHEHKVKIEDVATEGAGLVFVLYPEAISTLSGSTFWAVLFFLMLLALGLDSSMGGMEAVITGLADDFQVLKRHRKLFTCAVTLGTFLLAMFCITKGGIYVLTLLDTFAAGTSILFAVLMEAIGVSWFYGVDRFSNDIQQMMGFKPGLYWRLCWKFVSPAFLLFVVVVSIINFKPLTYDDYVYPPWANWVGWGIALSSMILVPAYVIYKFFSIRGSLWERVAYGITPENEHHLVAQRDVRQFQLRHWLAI

melting point [°C]	IC50 [1] [nM]	IC50 [2] [nM]	IC50 [3] [nM]	SMILES
92 to 94	–	–	–	O=c1n(CCN2CCN(c3ccc4[nH]ccc4c3)CC2)c2ccccc2n1C1=CCCCC1 (as salt: fumaric acid salt) [Compound A7, 1-Cyclohex-1-enyl-3-{2-[4-(1H-indol-5-yl)-piperazin-1-yl]-ethyl}-1,3-dihydro-benzoimidazol-2-one]
112 to 114	–	–	–	C=C(C)n1c(=O)n(CCN2CCN(c3ccc4[nH]ccc4c3)CC2)c2ccccc21 (as salt: fumaric acid salt) [Compound A8, 1-{2-[4-(1H-Indol-5-yl)-piperazin-1-yl]-ethyl}-3-isopropenyl-1,3-dihydro-benzoimidazol-2-one]
–	610	> 1000	14	C=C(C)n1c(=O)n(CCN2CCN(c3ccc4c(ccn4C)c3)CC2)c2ccccc21 [Compound A1, 1-Isopropenyl-3-{2-[4-(1-methyl-1H-indol-5-yl)-piperazin-1-yl]-ethyl}-1,3-dihydro-benzoimidazol-2-one]
–	3000	1100	8.1	Cn1ccc2cc(N3CCN(CCn4c(=O)n(C5=CCCCC5)c5ccccc54)CC3)ccc21 [Compound A2, 1-Cyclohex-1-enyl-3-{2-[4-(1-methyl-1H-indol-5-yl)-piperazin-1-yl]-ethyl}-1,3-dihydro-benzoimidazol-2-one]
–	1100	1700	3.3	Cn1ccc2ccc(N3CCN(CCn4c(=O)n(C5=CCCCC5)c5ccccc54)CC3)cc21 [Compound A3, 1-Cyclohex-1-enyl-3-{2-[4-(1-methyl-1H-indol-6-yl)-piperazin-1-yl]-ethyl}-1,3-dihydro-benzoimidazol-2-one]
–	62	1300	4.8	C=C(C)n1c(=O)n(CCN2CCN(c3ccc4ccn(C)c4c3)CC2)c2ccccc21 [Compound A4, 1-Isopropenyl-3-{2-[4-(1-methyl-1H-indol-6-yl)-piperazin-1-yl]-ethyl}-1,3-dihydro-benzoimidazol-2-one]
195 to 197	110	1300	3.9	C=C(C)n1c(=O)n(CCN2CCN(c3ccc4cc[nH]c4c3)CC2)c2ccccc21 [Compound A5]
171 to 173	160	27	4.4	O=c1n(CCN2CCN(c3ccc4cc[nH]c4c3)CC2)c2ccccc2n1C1=CCCCC1 [Compound A6, 1-Cyclohex-1-enyl-3-{2-[4-(1H-indol-6-yl)-piperazin-1-yl]-ethyl}-1,3-dihydro-benzoimidazol-2-one]
–	1200	2300	190	O=c1n(CCN2CCN(c3ccc4[nH]ccc4c3)CC2)c2ccccc2n1C1=CCCCC1 [Compound A7, 1-Cyclohex-1-enyl-3-{2-[4-(1H-indol-5-yl)-piperazin-1-yl]-ethyl}-1,3-dihydro-benzoimidazol-2-one]
–	290	> 1000	340	C=C(C)n1c(=O)n(CCN2CCN(c3ccc4[nH]ccc4c3)CC2)c2ccccc21 [Compound A8, 1-{2-[4-(1H-Indol-5-yl)-piperazin-1-yl]-ethyl}-3-isopropenyl-1,3-dihydro-benzoimidazol-2-one]
